Results on two compounds are retold here after patent US20250154172A1, “PRMT5 INHIBITORS AND USES THEREOF” (Gilead Sciences, Inc., priority 2023, published 2025).

One experiment relates to U-2 OS. Put plainly: Cell viability assay for additional cell lines: U-2 OS. It is filed as cell-based. The following applies: Homo sapiens, U2OS, 216 h, 9-day treatment, average of n=2, read-out: MTAP-WT GI50. The method, then:
Some Compounds of the Disclosure were tested in Calu-6 (Vendor: ATCC; Cat #HTB-56; Description: lung, adenocarcinoma), LU99 (Vendor: JCRB; Cat #JCRB0080; Description: non-small cell lung cancer), SW780 (Vendor: ATCC; Cat #CRL-2169; Description: bladder urothelial carcinoma), BxPC-3 (Vendor: ATCC; Cat #CRL-1687; Description: pancreatic adenocarcinoma), Panc-1 (Vendor: ATCC; Cat #CRL-1469 Description: pancreatic adenocarcinoma), AsPC-1 (Vendor: ATCC; Cat #CRL-1682; Description: pancreatic adenocarcinoma), Calu-6 (Vendor: ATCC; Cat #HTB-56; Description: non-small cell lung cancer), and U-2 OS (Vendor: ATCC; Cat #HTB-96; Description: osteosarcoma), cellular viability assays according to the general protocol. Seeded cells into 96-well plate and incubated overnight. Seeded an additional 10 wells per cell line in an additional 96-well plate for assessing Time Zero luminescence and incubated overnight. To treatment plates, added compounds into each well using Tecan D300e dispenser (nine three-fold dilutions starting at 10 μM) and incubated for 9 days. Time Zero (no compound treatment, luminescence assessed on day 1) and 9-day treatment (luminescence assessed on day 10) plates were assessed using the same CellTiter-Glo® substrate protocol. […] Recorded luminescence with Perkin Elmer Envision 2105 machine. Analyzed the data with GraphPad software. […]

The test system of the next experiment is SW780. Put plainly: Cell viability assay for additional cell lines: SW780. It is filed as cell-based. To be noted: for GI50: Homo sapiens, 216 h, 9-day treatment, average of n=2, read-out: MTAP-Deleted GI50. The method, then:
Some Compounds of the Disclosure were tested in Calu-6 (Vendor: ATCC; Cat #HTB-56; Description: lung, adenocarcinoma), LU99 (Vendor: JCRB; Cat #JCRB0080; Description: non-small cell lung cancer), SW780 (Vendor: ATCC; Cat #CRL-2169; Description: bladder urothelial carcinoma), BxPC-3 (Vendor: ATCC; Cat #CRL-1687; Description: pancreatic adenocarcinoma), Panc-1 (Vendor: ATCC; Cat #CRL-1469 Description: pancreatic adenocarcinoma), AsPC-1 (Vendor: ATCC; Cat #CRL-1682; Description: pancreatic adenocarcinoma), Calu-6 (Vendor: ATCC; Cat #HTB-56; Description: non-small cell lung cancer), and U-2 OS (Vendor: ATCC; Cat #HTB-96; Description: osteosarcoma), cellular viability assays according to the general protocol. Seeded cells into 96-well plate and incubated overnight. Seeded an additional 10 wells per cell line in an additional 96-well plate for assessing Time Zero luminescence and incubated overnight. To treatment plates, added compounds into each well using Tecan D300e dispenser (nine three-fold dilutions starting at 10 μM) and incubated for 9 days. Time Zero (no compound treatment, luminescence assessed on day 1) and 9-day treatment (luminescence assessed on day 10) plates were assessed using the same CellTiter-Glo® substrate protocol. Thawed CellTiter-Glo® Buffer and lyophilized CellTiter-Glo® substrate and equilibrated to room temperature prior to use. The DMSO concentration was normalized to 0.137%. Transferred 100 ml CellTiter-Glo® Buffer into amber bottle containing CellTiter-Glo® substrate to reconstitute the lyophilized enzyme/substrate mixture. For Time Zero and 9-day treatment plates, removed all plating media. Added 100 μl fresh media/well. Added 100 μl CellTiter-Glo® Reagent per well. Mixed contents for 10 min on an orbital shaker to lyse cells. Recorded luminescence with Perkin Elmer Envision 2105 machine. Analyzed the data with GraphPad software. Potency fold difference is defined as GI50 (AMG193)/GI50 (Ca-47) for the MTAP^del cell line of interest. The structure of AMG193 is as follows.

For the compound `Nc1nc2cnc(C(=O)N3CCOC[C@@H]3c3ccc(C(F)(F)F)cc3)cc2c2c1COC2` [AMG193, reference compound], the GI50 (commonly the concentration that inhibits growth by half) in the experiment on U-2 OS is 9360 nM; in the experiment with SW780, 96 nM.

With `Nc1nc2cnc(C(=O)N3CCC[C@@H]4Oc5cc(C(F)(F)F)cc(F)c5[C@@H]43)cc2c2c1COC2` [Example Ca-47, (4-amino-1,3-dihydrofuro[3,4-c][1,7]naphthyridin-8-yl)((4aS,9bS)-9-fluoro-7-(trifluoromethyl)-3,4,4a,9b-tetrahydrobenzofuro[3,2-b]pyridin-1(2H)-yl)methanone], the GI50 in the experiment with U-2 OS stood at 2300 nM; in the experiment on SW780, 17 nM. Besides, the Potency fold difference in the experiment on SW780 (GI50 (AMG193)/GI50 (Ca-47)) was determined as 5.6.
